{"source": "patent US5463125A", "about": "“Phenyl alcohol amides having anticonvulsant activity” (priority 1993, dated 1995)", "key": {"[1]": {"assay": "Pentetrazol (PTZ) anticonvulsant test", "assay_type": "in vivo, mice (male albino, NMR-1 strain)", "details": "Mus musculus, ip, 10 min, mice; PTZ s.c.; suppression of seizures of at least 5 s; for compound 1 PTZ given 10 min postdosing (footnote d)", "description": "(§1) Male albino mice (NMR-1 strain) weighing 28-32 gm were used in a mouse anticonvulsant and rotarod test. Each of the test compounds (n=0, 1 and 2) were dissolved in a 10% polyethylene glycol-400 saline solution and were administered intraperitoneally (i.p.). Convulsant agents were dissolved in saline solution, buffered with 15 mmol/l Tris-HCl, pH 7.4, except for bicuculline, which was first dissolved in 0.025N HCl, adjusting to pH 4 with a 0.15 mol/l citrate-phosphate buffer. The convulsant dose inducing seizures in 97% of mice (CD97) was determined and used in the pharmacological test. CD97 values obtained were: 85 for pentetrazol (PTZ), 15 for 4-aminopyridine (4-AP), 3.3 for bicuculline (BIC), 20 for thiosemicarbazide (TSC), and 2.0 for strychnine (STR) expressed as mg kg^-1. The time of peak drug effect was evaluated for each anticonvulsant before determining the dose-response curves. Convulsant agents were either injected subcutaneously (s.c. into the back of the neck (BIC, picrotoxin (PIC) and PTZ) or administered i.p. (4-AP, TSC and STR).\n(§2) Abolition of the tonic components of the seizure was the end point, except for PTZ, where suppression of seizures of at least 5 seconds duration was considered the end point. […] The ED50, TD50 and 95% confidence intervals were calculated by the method of Litchfield and Wilcoxon. See Litchfield et al., J. Pharmacol. Exp. Ther. 96, 99 (1949).\n^a) Seizures provoked by: maximal electroshock (MES), pentetrazol\n(§3) (PTZ), 4aminopyridine (4AP), bicuculline (BIC), thiosemicarbazide (TSC),"}, "[2]": {"assay": "Picrotoxin (PIC) anticonvulsant test", "assay_type": "in vivo, mice (male albino, NMR-1 strain)", "description": "as §1, §2\n(§4) strychnine (STR) and picrotoxin (PIC)."}, "[3]": {"assay": "Thiosemicarbazide (TSC) anticonvulsant test", "assay_type": "in vivo, mice (male albino, NMR-1 strain)", "details": "Mus musculus, ip, 10 min, mice, abolition of tonic components, for compound 1 TSC given 10 min postdosing", "description": "as §1, §2, §3"}, "[4]": {"assay": "4-aminopyridine (4-AP) anticonvulsant test", "assay_type": "in vivo, mice (male albino, NMR-1 strain)", "details": "Mus musculus, ip, mice; 4-AP i.p.; abolition of tonic components", "description": "as §1, §2, §3"}, "[5]": {"assay": "Bicuculline (BIC) anticonvulsant test", "assay_type": "in vivo, mice (male albino, NMR-1 strain)", "details": "Mus musculus, ip, mice; BIC s.c.; abolition of tonic components", "description": "as §1, §2, §3"}, "[6]": {"assay": "Accelerating rotarod ataxia test", "assay_type": "in vivo, mice (male albino, NMR-1 strain)", "description": "as §1\nIn a rotarod test, separate groups of mice were trained to stay on an accelerating rotarod that rotated initially at 2.16 rpm, then increased in speed to reach 22.5 rpm in 4 min. The drum diameter was 2.8 cm. Trained animals were dosed with the test compound or drug vehicle and were tested at the time of peak drug effect to measure the effects of the drug on motor performance. The dose at which 50% of the animals fell off the rotarod (TD50 value) was determined by probit analysis.\n^b) Accelerating rotarod."}, "[7]": {"assay": "Solubility", "assay_type": "physicochemical", "description": "The solid formed was separated by means of filtration and washed with cold benzene. This solid is the DL-HEPA that crystallizes from benzene. […]. […] Fusion point was 91°-92° C. Yield was 20%.\nWhile still warm, the mixture was carefully neutralized with a 5% sulfuric acid solution using litmus paper. Once neutralized, the mixture was extracted with 50 ml volumes of ethyl ether. The ether was distilled in a rotating evaporator, and the white solid residue was the DL-HEPP that crystallizes with water. […] Its fusion point is 101°-102° C."}, "[8]": {"assay": "Strychnine (STR) anticonvulsant test", "assay_type": "in vivo, mice (male albino, NMR-1 strain)", "details": "for ED50: Mus musculus, ip, read-out: ED50 STR", "description": "as §1, §2, §4"}, "[9]": {"assay": "Maximal electroshock test (MES)", "assay_type": "in vivo, mice (male albino, NMR-1 strain)", "details": "Mus musculus, ip, mice, at time of peak drug effect; 95% confidence interval", "description": "as §1, §2\nIn a maximal electroshock test, maximal seizures were induced by application of an electrical current across the brain via carclip electrodes. The stimulus parameters for mice were 30-35 mA, A.C. in pulses of 60 Hz for 200 ms. Each compound was tested at the time of peak drug effect. The dose at which the hind limb tonic seizure was blocked in 50% of the animals (ED50 value) was determined by probit analysis.\nas §3"}, "[10]": {"details": "mice; cited from earlier work"}, "[11]": {"details": "data obtained from NIH, ADD program; cited from earlier work"}, "[12]": {"details": "constant speed rotarod; data obtained from NIH, ADD program; cited from earlier work"}, "[13]": {"details": "in vivo; cited from earlier work"}, "[14]": {"details": "cats; cited from earlier work"}, "[15]": {"details": "patients having grand mal seizures; cited from earlier work"}, "[16]": {"details": "data obtained from NIH, ADD program; cited from earlier work", "remark": "listed apart in the source"}, "[17]": {"assay": "Convulsant dose inducing seizures in 97% of mice (CD97)", "assay_type": "in vivo, mice (male albino, NMR-1 strain)", "description": "as §1"}, "[18]": {"assay": "Preliminary test against convulsions provoked by pentylenetetrazol", "assay_type": "in vivo", "details": "100 mg kg^-1, i.p.", "text": "Phenyl alcohol amide derivatives of the foregoing compounds wherein n=0 to 2 may be synthesized by substitution of the ethyl group at the center of chirality by either a methyl or phenyl group. […] Substitution of ethyl by phenyl in the n=0 and n=1 produces a loss in anticonvulsant activity."}, "[19]": {"details": "administered i.p. (4-AP, TSC, STR)"}}, "note": "Read-outs that look alike come from different tables or passages of the source."}
{"smiles": "CCC(O)(C(N)=O)c1ccccc1", "note": "(racemic) [Compound 1, (±)-2-hydroxy-2-phenylbutyramide]", "values": [{"measurement": "ED50", "setting": "[1]", "result": 67, "unit": "mg/kg"}, {"measurement": "PIC effect", "setting": "[2]; at 80 mgkg^-1", "result": "No effects"}, {"measurement": "ED50", "setting": "[3]", "result": 47, "unit": "mg/kg"}, {"measurement": "ED50", "setting": "[4]", "result": 24, "unit": "mg/kg"}, {"measurement": "ED50", "setting": "[5]", "result": 29, "unit": "mg/kg"}, {"measurement": "TD50 rotarod ataxia", "setting": "[6]; accelerating rotarod, i.p., mice, compound 2 tested 30 min postdosing", "result": 132, "unit": "mg/kg"}, {"measurement": "solubility (insoluble in)", "setting": "[7]", "result": "insoluble in cold benzene or water"}, {"measurement": "solubility (soluble in)", "setting": "[7]", "result": "soluble in ethyl alcohol, chloroform and hot benzene"}, {"measurement": "ED50", "setting": "[8]", "result": 56, "unit": "mg/kg"}, {"measurement": "strychnine activity relative to the n=2 compound", "setting": "[8]; comparison in words", "result": "more than twice that of the n=2 compound"}, {"measurement": "ED50", "setting": "[9]", "result": 126, "unit": "mg/kg"}]}
{"smiles": "CCC(O)(CC(N)=O)c1ccccc1", "note": "(racemic) [Compound 2, (±)-3-hydroxy-3-phenylpentamide]", "values": [{"measurement": "ED50", "setting": "[1]", "result": 63, "unit": "mg/kg"}, {"measurement": "Maximum protection, PIC", "setting": "[2]; at 130 mgkg^-1, PIC administered 15 min postdosing", "result": 37, "unit": "%"}, {"measurement": "picrotoxin test activity", "setting": "[2]; dose of 130 mg kg^-1", "result": "active"}, {"measurement": "ED50", "setting": "[3]", "result": 43, "unit": "mg/kg"}, {"measurement": "ED50", "setting": "[4]", "result": 19, "unit": "mg/kg"}, {"measurement": "ED50", "setting": "[5]", "result": 38, "unit": "mg/kg"}, {"measurement": "neurotoxicity in rotarod ataxia test", "setting": "[6]; in words", "result": "unusually low neurotoxicity"}, {"measurement": "TD50", "setting": "[6]; mouse, in vivo, ip, accelerating rotarod, i.p., mice, compound 2 tested 30 min postdosing, read-out: TD50 rotarod ataxia", "result": 214, "unit": "mg/kg"}, {"measurement": "solubility (insoluble in)", "setting": "[7]", "result": "insoluble in cold water"}, {"measurement": "solubility (soluble in)", "setting": "[7]", "result": "soluble in ethyl alcohol, benzene and hot water"}, {"measurement": "Maximum protection, STR", "setting": "[8]; at 100 mgkg^-1, STR administered 15 min postdosing", "result": 30, "unit": "%"}, {"measurement": "ED50", "setting": "[9]", "result": 144, "unit": "mg/kg"}]}
{"smiles": "CCC(O)(CCC(N)=O)c1ccccc1", "note": "(racemic) [Compound 3, (±)-4-hydroxy-4-phenylhexanamide]", "values": [{"measurement": "protection against seizures provoked by bicuculline", "setting": "[10]", "result": "protects mice against seizures"}, {"measurement": "protection against seizures provoked by maximal electroshock", "setting": "[10]", "result": "protects mice against seizures"}, {"measurement": "protection against seizures provoked by pentetrazol", "setting": "[10]", "result": "protects mice against seizures"}, {"measurement": "ED50 MES", "setting": "[11]", "result": 147, "unit": "mg/kg"}, {"measurement": "TD50 rotarod ataxia", "setting": "[12]", "result": 168, "unit": "mg/kg"}, {"measurement": "profile of anticonvulsant activity", "setting": "[13]", "result": "broad profile of anticonvulsant activity"}, {"measurement": "ED50", "setting": "[1]", "result": 63, "unit": "mg/kg"}, {"measurement": "PIC effect", "setting": "[2]; at 120 mgkg^-1", "result": "No effects"}, {"measurement": "ED50", "setting": "[3]", "result": 73, "unit": "mg/kg"}, {"measurement": "ED50", "setting": "[4]", "result": 29, "unit": "mg/kg"}, {"measurement": "protection against hippocampal kindling", "setting": "[14]", "result": "protects"}, {"measurement": "clinical antiepileptic action", "setting": "[15]", "result": "potent clinical antiepileptic action"}, {"measurement": "ED50", "setting": "[5]", "result": 30, "unit": "mg/kg"}, {"measurement": "ED50 PTZ", "setting": "[16]", "result": 58, "unit": "mg/kg"}, {"measurement": "TD50", "setting": "[6]; rotarod ataxia test", "result": 111}, {"measurement": "ED50", "setting": "[8]", "result": 106, "unit": "mg/kg"}, {"measurement": "ED50", "setting": "[9]", "result": 148, "unit": "mg/kg"}]}
{"smiles": "Nc1ccncc1", "note": "[4-aminopyridine]", "values": [{"measurement": "CD97", "setting": "[17]; [19]", "result": 15, "unit": "mg/kg"}]}
{"smiles": "CN1CCc2cc3c(cc2[C@H]1[C@@H]1OC(=O)c2c1ccc1c2OCO1)OCO3", "note": "[bicuculline]", "values": [{"measurement": "CD97", "setting": "[17]; administered s.c. (PTZ, BIC)", "result": 3.3, "unit": "mg/kg"}]}
{"smiles": "CC(O)(CC(N)=O)c1ccccc1", "note": "(stereo not drawn) [methyl group in the n=1 compound]", "values": [{"measurement": "anticonvulsant activity against pentylenetetrazol convulsions", "setting": "[18]", "result": "suppresses anticonvulsant activity"}]}
{"smiles": "CC(O)(C(N)=O)c1ccccc1", "note": "(stereo not drawn) [n=0 derivative]", "values": [{"measurement": "anticonvulsant activity against pentylenetetrazol convulsions", "setting": "[18]", "result": "retains activity"}]}
{"smiles": "CC(O)(CCC(N)=O)c1ccccc1", "note": "(stereo not drawn) [n=2 derivative]", "values": [{"measurement": "anticonvulsant activity against pentylenetetrazol convulsions", "setting": "[18]", "result": "conserves half-potency"}]}
{"smiles": "C1CCc2nnnn2CC1", "note": "[pentetrazol]", "values": [{"measurement": "CD97", "setting": "[17]; administered s.c. (PTZ, BIC)", "result": 85, "unit": "mg/kg"}]}
{"smiles": "O=C1C[C@@H]2OCC=C3CN4CC[C@]56c7ccccc7N1[C@H]5[C@H]2[C@H]3C[C@H]46", "note": "[strychnine]", "values": [{"measurement": "CD97", "setting": "[17]; [19]", "result": 2.0, "unit": "mg/kg"}]}
{"smiles": "NNC(N)=S", "note": "[thiosemicarbazide]", "values": [{"measurement": "CD97", "setting": "[17]; [19]", "result": 20, "unit": "mg/kg"}]}
